According to article PMC5055185, “Dual pharmacological inhibition of glutathione and thioredoxin systems synergizes to kill colorectal carcinoma stem cells” (Cancer Medicine, 2016):
Values joined by “and” are separate entries in the source; they are usually repeats but may differ in a detail not shown here. Identical values can stand only once.

How the values were obtained:
Assay type in all cases: cell-based, human
HCT116 CRC cell line = experiment: intracellular ROS, CellROX Deep Red flow cytometry, HCT116; conditions: treated 1 h (menadione 100 μmol/L, 30 min)
Experimental: In order to estimate the effect of each inhibitor described above, intracellular reactive oxygen species (ROS) were measured using CellROX™ Deep Red reagent (Molecular Probes). Briefly, cells were seeded on 6‐well plates at 1 × 10^6 cells per well. After cells reached 90% confluence, cells were treated with designated reagents for 1 h. CellROX™ Deep Red reagent was added at a final concentration of 5 μmol/L to the culture medium and then incubated for 30 min at 37°C. Subsequently, the medium was removed and the cells were washed with PBS and detached using 0.25% trypsin‐EDTA. The resulting fluorescence was measured using a FACS Calibur flow cytometer (Becton Dickinson, Franklin Lakes, NJ). Menadione (100 μmol/L) was added 30 min before CellROX™ Deep Red reagent treatment as a reference ROS inducer. […] CD44v9 positivity of CTOS cells was analyzed as follows: Cancer spheroids were dispersed with serial treatments of TrypLE™ (20 min, GIBCO) and Accumax™ (10 min, Innovative Cell Technologies, San Diego, CA). Cell surface CD44v9 was stained with CD44v9 antibody (Cosmobio) as well as PE‐conjugated anti‐rat IgG2a (Becton Dickinson). The fluorescence was measured using a FACS Calibur flow cytometer (Becton Dickinson). Since CTOSs contained abundant auto‐fluorescent cells, we defined FL2^+FL1^− cells as authentic PE‐positive (Fig. S4). Thus, CD44v9‐positive rate was defined as FL2^+FL1^−/total live cells and CD44v9‐positive fraction was further gated and split between CD44v9^low and CD44v9^high (Fig. S4), to calculate the mean fluorescent intensity of CD44v9^high fraction.
One hour after each drug treatment, cells were stained with CellROX DeepRed and intracellular ROS were quantified with FACS. Upper: histogram of fluorescent signal is represented. Lower. representative mean fluorescent intensity scores are shown. Note that without drug treatment (Control), intracellular ROS is higher in OUMS36 and TIG3 (embryonic fibroblasts) but lower in DLD-1 and HCT116 (CRC cell lines). ROS in DLD-1 was increased by auranofin. ROS in HCT116 was increased by all the inhibitors tested. Menadione was used as a reference chemical to increase ROS.

[1] = system: OUMS‐36 embryonic fibroblasts; experiment: cell survival (live cell count by trypan blue exclusion, 5 days drug exposure), OUMS-36; conditions: for IC50: OUMS36, cellular survival, 5 days
Experimental: Modified procedures of CTOS culture 16 were described elsewhere 10. […] The culture medium was serum‐free advanced DMEM/F‐12 (GIBCO, Waltham, MA) supplemented with FGF‐2 (10 ng/mL, ReproCell, Yokohama, Japan), penicillin ([…], Wako, Osaka, Japan), streptomycin (0.1 mg/mL,Wako), gentamicin (50 μg/mL, Wako), and fungizone (0.25 μg/mL, GIBCO). DLD‐1 and HCT116 CRC cell lines were purchased from JCRB Cell Bank (Osaka, Japan) and RIKEN BioResource Center (Ibaraki, Japan), respectively. In order to estimate pharmacological side effects against normal tissues, human diploid fibroblasts were purchased (JCRB Cell Bank) as model cells. The origins of the fibroblasts were as follows: OUMS‐36 (embryo), TIG‐3 (fetal lung), TIG‐111 (dermal fibroblasts [DFs] from individual), TIG‐119 (DFs from individual), and TIG‐102 (DFs from individual). Adult DFs were purchased from Kurabo (Osaka, Japan). CRC cell lines and fibroblasts were maintained under supplier‐recommended culture conditions. Since the culture conditions are different between fibroblasts and CTOSs, we need to be cautious about the interpretation of data (i.e., lateral comparison between them). […] Colorectal CTOSs display augmented survival through maintaining epithelial structure with E‐cadherin 16. On the other hand, the establishment of conventional cell lines (adherent culture) are much less efficient because constant cell division and autonomous survival are required for the procedure. When we choose CTOSs instead of cancer cell lines, we lose the equivalent condition (adherent culture) as a trade‐off.
Each drug's half‐maximal inhibitory concentration (IC50) was calculated based on live cell number ratios (drug treated/untreated × 100%) obtained from serial dilution of drug concentration. The length of drug exposure was 5 days. Each number of live cells was counted automatically by trypan blue exclusion (LUNA automated cell counter, Logos Biosystems, Anyang, South Korea). Cancer spheroids were dispersed with serial treatments (20 min each) of TrypLE™ and Accumax™. Thus, IC50 was determined based on cellular survival, but not on proliferation. We chose the survival index instead of the speed of growth because CTOSs in vitro show very slow proliferation (quiescence), which is one of the hallmarks of CSCs 2. The IC50 values of fibroblasts were accordingly determined based on cellular survival index during quiescence (by contact inhibition). […] To quantify the synergism of two distinct drugs, Combination Index (CI) was calculated 21. A CI value of about 1 (0.90–1.10) was defined as nearly additive and CI values more than (>1.10) and less than (<0.90) were defined as antagonism and synergism, respectively. IC50 and CI were determined using CompuSyn software (ComboSyn, Paramus, NK).

[2] = system: phosphorylated NRF2 in colorectal CTOSs; experiment: NRF2 phosphorylation by western blotting, colorectal CTOSs; conditions: 24 hours, Auranofin 2µM, Piperlongumine 5µM, CB83 12.5 µM
Experimental: From colorectal CTOS, whole‐cell proteins were dissolved with solubilizer (7 mol/L urea, 2 mol/L thiourea, 2% Triton X‐100, Wako) and the entangled genomic DNA was sheared by sonication for 30 min. Procedures for immunoblotting have been described elsewhere 6, 10. Primary antibodies used in this study are as follows: phosphorylated NRF2 from Abcam (#76026) and Histone H3 from Cell Signaling Technologies (#4499, Danvers, MA). Phosphorylation of NRF2 is well correlated with nuclear accumulation in HCCs 6. Representative data are shown in the figures; all experiments were reproduced at least twice with different passage points.
Colorectal CTOSs were incubated with each inhibitor for 24 hours. Whole cell proteins were extracted and each well was loaded with same amount of proteins (40 µg for NRF2 and 10 µg for H3). Phosphorylation of NRF2 was measured by western blotting. Blotting for histone H3 serves as loading control.

SMILES	intracellular ROS response (HCT116 CRC cell line)	IC50 [1] [µM]	Ratio of survived cells (Drugs treated/Untreated), Average ([1]; OUMS-36, Aura 1 microM) [%]	Ratio of survived cells (Drugs treated/Untreated), single passage points # ([1]; OUMS-36, Aura 1 microM)	Ratio of survived cells (Drugs treated/Untreated), Average ([1]; OUMS-36, Aura 2 microM) [%]	Ratio of survived cells (Drugs treated/Untreated), Average ([1]; OUMS-36, Aura 4 microM) [%]	NRF2 phosphorylation [2]	Ratio of survived cells (Drugs treated/Untreated), Average ([1]; OUMS-36, Pipe 2.5 microM) [%]	Ratio of survived cells (Drugs treated/Untreated), Average ([1]; OUMS-36, Pipe 5 microM) [%]	Ratio of survived cells (Drugs treated/Untreated), Average ([1]; OUMS-36, Pipe 10 microM) [%]
CC[PH](CC)(CC)[Au][S][C@@H]1O[C@H](COC(C)=O)[C@@H](OC(C)=O)[C@H](OC(C)=O)[C@H]1OC(C)=O [Aura, Auranofin]	increase of ROS	1.79	87.8571	123% and 124% and 66% and 91% and 65% and 77% and 69%	39.8571	6	efficiently phosphorylated	–	–	–
COc1cc(/C=C/C(=O)N2CCC=CC2=O)cc(OC)c1OC [Pipe, Piperlongumine]	increase of ROS	9.36	–	–	–	–	efficiently phosphorylated	107.667	84.6667	49.1667
